Measured values from publication PMC5306062, “Pharmacology and toxicology of the novel investigational agent Cantrixil (TRX-E-002-1)” (Cancer Chemotherapy and Pharmacology, 2016).
“And” between values parts separate entries of the source, which are not always exact repeats. Equal entries are not always repeated. Where two headings read alike, the source gives them in different places.

Tests used:
[1] = biological target: T1, CYP3A4 (Homo sapiens, UniProt P08684); test: Metabolism-dependent CYP inhibition in human hepatic microsomes; assay type: in vitro ADME
T1 construct: investigated in human hepatic microsomes in vitro; from tissue; host or cells: human hepatic microsomes
From the text: (§1) The potential for pharmacokinetic drug interactions resulting from inhibition of drug-metabolizing cytochrome P450 enzymes was investigated in human hepatic microsomes in vitro. TRX-E-002-1 inhibited multiple cytochrome P450 drug-metabolizing enzymes, including CYP2C9, CYP2C8, CYP2C19, CYP2B6, CYP3A4, CYP2D6, CYP2A6 and CYP1A2. […] In particular, the potential interaction between Cantrixil and paclitaxel, a CYP2C9 substrate frequently used in the treatment of ovarian cancer, needs to be considered.

[2] = tested on: CYP2C9, CYP2C8, CYP2C19, CYP2B6, CYP3A4, CYP2D6, CYP2A6 and CYP1A2; test: Inhibition of cytochrome P450 enzymes in human hepatic microsomes; assay type: in vitro ADME; conditions: liver microsomes, read-out: IC50 values, range over the CYP enzymes
From the text: as §1

[3] = Rat GLP 28-day repeat-dose intraperitoneal toxicity study; assay type: in vivo, SD rats; conditions: for half-life / Tmax / NOAEL at 28 days / Cmax: rat; for half-life / Tmax / Cmax: plasma, ip; for half-life: read-out: estimated plasma elimination half-life; for NOAEL at 28 days: in vivo
Procedure: TRX-E-002-1 peak plasma concentrations were observed 0.25 – 0.5 h after dosing, except for mid-dose females on Day 1 (T max = 1 h). […] Mean plasma TRX-E-002-1 concentrations were roughly proportional to dose and were generally higher in males than in females. […] AUClast values on Day 28 tended to be higher than those on Day 1, except in low-dose males and high-dose females (Table 2), indicating slight accumulation of TRX-E-002-1 with daily dosing.
No deaths were observed during the study. […] At 10 mg/kg, reduced quantity of faeces was observed during the first 1 or 2 weeks in all animals. During the recovery period, faeces were normal, although anogenital staining persisted up to 4 days after cessation of dosing in one high-dose male.
Body weight gain was reduced over Days 1–28 in high-dose males, and during the first treatment week in mid-dose males and high-dose females. Mean body weights at the end of the dosing period were 99.5, 95.7 and 89.2% of control values in males at 0.5, 3 and 10 mg/kg/day, respectively; corresponding values in females were 99.8, 97.8 and 97.8%, respectively.
Treatment-related macroscopic abnormalities at the terminal necropsy were limited to distention of the caecum and/or colon in both sexes at 10 mg/kg/day, and obstruction of the colon in 3/10 males at this dose level. No macroscopic findings were present after the recovery period. […] Thymic weight was reduced in males at 3 and 10 mg/kg/day and was increased in females at 10 mg/kg/day. Testicular and epididymal weights were still reduced in the 10 mg/kg/day group after the recovery period.
Similar changes were also seen after the 14-day recovery period (significant in males only).
In summary, the major toxicity finding in rats dosed once daily for 28 days with TRX-E-002-1 was degeneration of seminiferous tubules in the testes and of sperm in the epididymides at the high dose of 10 mg/kg/day. Other findings including transient faecal changes, reductions in weight gain and food consumption, serum biochemical changes, macroscopic lesions in the large intestine and atrophy of the salivary glands were considered non-adverse. The NOAEL was considered to be 3 mg/kg/day in male rats and 10 mg/kg/day in females. The greater sensitivity of male rats compared with females would appear to be associated with higher cumulative systemic exposure over the 28-day repeat-dose period.

[4] = tested on: chemo-sensitive CD44−/MyD88− ovarian cancer cell lines; test: Cell death in chemo-sensitive ovarian cancer cell lines; assay type: cell-based, human; conditions: grown separately or in co-cultures
From the text: Tumour recurrence post-chemotherapy is caused by the regrowth of the surviving innately drug-resistant cancer stem cells that remain in tumour niches during and post-chemotherapy. The expansion of this chemo-resistant cancer cell population, coupled with upregulation of pro-survival pathways due to drug pressure, is thought to be responsible for the development of chemo-resistant recurrent disease. Further, the inherent heterogeneity of ovarian tumours consists of epithelial cells with varying potential for stemness, and a population of cancer cells with varying mesenchymal status and invasiveness potential. Therefore, to improve survival, a practical approach is the use of novel therapies that can induce cell death in these various subtypes of ovarian cancer cells. TRX-E-002-1 was assessed against ovarian cancer stem cell line OCSC2, characterised by their expression of stem cell markers including CD44 and […] [22]. A major characteristic of these cells is that they are drug resistant, able to form self-renewing spheroids in non-adherent culture, and recreate disseminated drug-resistant ovarian tumours that have a high degree of heterogeneity similar to the clinical profile observed in patients when inoculated into the peritoneal cavity of an immune-compromised mouse.

[5] = tested on: recurrent ovarian cancer model; test: Recurrent ovarian cancer model after paclitaxel (OCSC2-inoculated mice); assay type: in vivo
Procedure: (§2) In vivo, TRX-E-002-1, formulated in 20% SBECD, was active in a disseminated ovarian cancer model and a recurrent ovarian cancer model in which tumour recurrence is investigated following initial treatment of the OCSC2-inoculated mice with paclitaxel. In both models, TRX-E-002-1 inhibited tumour growth following once daily intraperitoneal administration.
In the recurrent ovarian cancer model, once daily intraperitoneal administration of 100 mg/kg TRX-E-002-1 in 20% SBECD for 4 weeks inhibited tumour growth and reduced terminal tumour burden by 77%.

[6] = tested on: disseminated ovarian cancer model; test: Disseminated ovarian cancer model, intraperitoneal dosing; assay type: in vivo, mice
From the text: as §2
The combination of TRX-E-002-1 and cisplatin was investigated in the murine model of disseminated ovarian cancer.

[7] = tested on: caspases 3/7 and 9; test: Caspase activity in OCSC2 cells; assay type: cell-based, human
Procedure: The role of caspases and intracellular signalling pathways in the anticancer activity of TRX-E-002-1 was investigated in OCSC2 ovarian cancer stem cells. […] TRX-E-002-1 also modulated phosphorylation of intracellular signalling molecules, with decreased levels of pERK (phosphorylated extracellular signal-regulated kinase) and increased levels of phosphorylated c-Jun (p–c-Jun). Activated p–c-Jun levels increased progressively over the 24-h incubation period in response to both concentrations of TRX-E-002-1 tested. […] Increased p–c-Jun and decreased pERK levels were observed following incubation of OCSC2 cells after only 2-h’ exposure, indicating these changes are one of the earliest effects of TRX-E-002-1 treatment.

[8] = 100 mg/kg i.p. once daily in 20% SBECD for 4 weeks

T1 sequence (P08684 whole entry): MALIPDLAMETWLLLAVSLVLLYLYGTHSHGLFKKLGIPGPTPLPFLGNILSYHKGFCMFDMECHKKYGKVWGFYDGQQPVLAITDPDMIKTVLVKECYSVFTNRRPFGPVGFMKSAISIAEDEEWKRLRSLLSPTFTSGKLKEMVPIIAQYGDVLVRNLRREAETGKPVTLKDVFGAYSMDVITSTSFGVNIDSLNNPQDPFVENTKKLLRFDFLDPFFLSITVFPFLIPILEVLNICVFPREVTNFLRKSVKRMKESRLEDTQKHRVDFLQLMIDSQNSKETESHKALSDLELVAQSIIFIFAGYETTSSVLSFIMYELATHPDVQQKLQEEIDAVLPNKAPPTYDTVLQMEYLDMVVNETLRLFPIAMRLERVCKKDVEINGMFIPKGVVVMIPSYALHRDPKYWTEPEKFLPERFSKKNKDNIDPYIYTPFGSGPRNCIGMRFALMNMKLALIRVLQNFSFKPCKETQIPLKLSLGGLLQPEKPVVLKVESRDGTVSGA

COc1cc([C@@H]2COc3c(ccc(O)c3C)[C@@H]2c2ccc(O)cc2)cc(OC)c1O [TRX-E-002-1, (+) cis-4-(para-hydroxyphenyl)-7,4′-dihydroxy-3′,5′-dimethoxy-8-methylisoflavan]
metabolism-dependent inhibition [1]: observed | IC50 [2]: 1.5 µM to 75 µM and 0.612 µg/mL to 30.6 µg/mL | decreases in total protein, albumin and globulin ([3]; 10 mg/kg/day, males and females, end of 28-day treatment): ≤ 8% | deaths ([3]; 0.5, 3 or 10 mg/kg/day up to 28 days): No deaths | half-life ([3]; both sexes, Sprague-Dawley, Day 1, across sexes and doses): 42 to 84 min | half-life ([3]; both sexes, Sprague-Dawley, Day 28): 54 to 138 min | Tmax ([3]; both sexes, Sprague-Dawley, all groups except mid-dose females on Day 1, read-out: time of peak plasma concentrations): 15 to 30 min | NOAEL at 28 days ([3]; female, SD): 10 mg/kg/day | Cmax ([3]; female, SD, Day 1, 0.5 mg/kg, females): 33.4 ng/mL | Cmax ([3]; female, SD, Day 1, 3 mg/kg, females): 150 ng/mL | Tmax ([3]; female, Sprague-Dawley, 3 mg/kg, mid-dose females, Day 1, read-out: T max): 60 min | Cmax ([3]; female, Sprague-Dawley, Day 1, 10 mg/kg, females): 535 ng/mL | mean body weight at end of dosing period ([3]; females, 0.5 mg/kg/day): 99.8 % of control values | mean body weight at end of dosing period ([3]; females, 3 mg/kg/day): 97.8 % of control values | mean body weight at end of dosing period ([3]; females, 10 mg/kg/day): 97.8 % of control values | mean body weight after the 14-day recovery period ([3]; high-dose males): 93.6 % of control value | NOAEL at 28 days ([3]; male, SD): 3 mg/kg/day | Cmax ([3]; male, SD, Day 1, 3 mg/kg, males): 181 ng/mL | Cmax ([3]; male, SD, Day 1, 10 mg/kg, males): 780 ng/mL | Cmax ([3]; male, Sprague-Dawley, Day 1, 0.5 mg/kg, males): 35.4 ng/mL | mean body weight at end of dosing period ([3]; males, 0.5 mg/kg/day): 99.5 % of control values | mean body weight at end of dosing period ([3]; males, 3 mg/kg/day): 95.7 % of control values | mean body weight at end of dosing period ([3]; males, 10 mg/kg/day): 89.2 % of control values | induction of cell death [4]: able to induce cell death | reduction of terminal tumour burden [5, 8]: 77% | tumour growth [5, 8]: inhibited | efficacy compared with paclitaxel ([5]; paclitaxel 12 mg/kg twice weekly): more effective | tumour growth ([6]; 100 mg/kg i.p. once daily in 20% SBECD for 13–14 days): significantly inhibited | tumour growth during the 16-day treatment period ([6]; TRX-E-002-1 100 mg/kg once daily, cisplatin 5 mg/kg once weekly, or both): significantly inhibited | tumour growth during the 5-week post-treatment period ([6]; after 16-day treatment, TRX-E-002-1 100 mg/kg once daily, cisplatin 5 mg/kg once weekly, or both): decreased | activity of caspases 3/7 and 9 [7]: markedly increased
